This is an account of results in paper PMC11852993, “Discovery of small molecules against porcine reproductive and respiratory syndrome virus replication by targeting NendoU activity” (Journal of Virology, 2024).

Assay [1] deals with T1, VR-NSP11 (PRRSV VR2332, UniProt Q9WJB2).
T1 construct: gene rep; mature NSP11 cut from replicase polyprotein 1ab (ORF1b part); N-terminal 6xHN tag (pET6xHN-N), expressed in E. coli BL21(DE3), TALON purified
The assay can be described thus: FRET NendoU assay (6-FAM/BHQ-1 RNA R23.[…]). It counts as biochemical.

In assay [2] the target is T1, VR-NSP11. The assay can be described thus: microscale thermophoresis. It is filed as binding. The source says: microscale thermophoresis on VR-NSP11 | The MST analysis confirmed a direct interaction between VR-NSP11 and both compounds

Read-outs that look alike come from different tables or passages of the source.

T1 sequence (Q9WJB2 3585-3807): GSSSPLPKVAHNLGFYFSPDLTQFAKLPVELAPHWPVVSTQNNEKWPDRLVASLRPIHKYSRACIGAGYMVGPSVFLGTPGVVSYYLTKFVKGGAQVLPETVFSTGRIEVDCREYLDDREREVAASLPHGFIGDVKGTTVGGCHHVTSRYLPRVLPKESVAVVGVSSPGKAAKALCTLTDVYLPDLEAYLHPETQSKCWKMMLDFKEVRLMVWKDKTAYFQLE

Usually IC50 stands for the concentration needed to halve the response being measured. A word on the Kd: it is the equilibrium constant for the complex coming apart. High values mean a looser complex, low ones a tighter complex. Consider `CCc1c(C)nc(Nc2nc(C)c3ccc(OC)cc3n2)nc1O` [A8-A2], for which the IC50 in assay [1] (read-out: IC50) was 24.6 µM. Binding in assay [2] was characterised by a dissociation constant (Kd) of 23 µM. For the compound `COc1ccc2c(C)nc(Nc3nc(C)c(C)c(=O)[nH]3)nc2c1` [Madrasin], the IC50 entry in assay [1] (fluorescence at 2 h, 1 µM R23.1, HEPES pH 7.5, 50 mM KCl, 1 mM DTT, 25 °C, 1.2 µM enzyme) was “these IC50 values are higher than those of C5 and Madrasin”.
